These results are taken from patent US20250081967A1, “PESTICIDALLY ACTIVE HETEROCYCLIC DERIVATIVES WITH SULFOXIMINE CONTAINING SUBSTITUENTS” (SYNGENTA CROP PROTECTION AG, priority 2021, published 2025).

The structures appear in SMILES notation.

Holding throughout (format): in vivo
One data set deals with Bemisia tabaci. As to the kind of experiment: Activity against Bemisia tabaci (cotton white fly), cotton leaf discs. The conditions noted are these: foliar; for mortality at 200 ppm: 144 h, application rate 200 ppm, adult white flies, 6 days after incubation; for mortality at 12.5 ppm: concentration 12.5 ppm. As to the method: Example B6: Activity Against Bemisia tabaci (Cotton White Fly)
Cotton leaf discs were placed on agar in 24-well microtiter plates and sprayed with aqueous test solutions prepared from 10′000 ppm DMSO stock solutions. After drying the leaf discs were infested with adult white flies. The samples were checked for mortality 6 days after incubation.

Data set [1] concerns Myzus persicae. Nature of the data set: Activity against Myzus persicae (green peach aphid), systemic activity, pea seedlings. The settings on record: Myzus persicae. As to the method: Example B5: Activity Against Myzus persicae (Green Peach Aphid) Systemic Activity
Roots of pea seedlings infested with an aphid population of mixed ages were placed directly in the aqueous test solutions prepared from 10′000 DMSO stock solutions. The samples were assessed for mortality 6 days after placing seedlings in test solutions.

In another data set the test system is Diabrotica balteata. Nature of the data set: Activity against Diabrotica balteata (corn root worm), maize sprouts. The settings on record: for percent effect (mortality or growth inhibition) at 200 ppm: 96 h, application rate 200 ppm, L2 larvae, 4 days after infestation, read-out: effect in at least one of the two categories (mortality or growth inhibition); for mortality at 3.125 ppm: concentration 3.125 ppm; for mortality at 50 ppm: concentration 50 ppm. The protocol: Example B3: Activity Against Diabrotica Balteata (Corn Root Worm)
Maize sprouts placed onto an agar layer in 24-well microtiter plates were treated with aqueous test solutions prepared from 10′000 ppm DMSO stock solutions by spraying. After drying, the plates were infested with L2 larvae (6 to 10 per well). The samples were assessed for mortality and growth inhibition in comparison to untreated samples 4 days after infestation.

Data set [2] relates to Myzus persicae. Nature of the data set: Activity against Myzus persicae (green peach aphid), feeding/contact activity, sunflower leaf discs. The settings on record: for mortality at 200 ppm: 144 h, application rate 200 ppm, feeding/contact, 6 days after infestation. The protocol:
Example B4: Activity Against Myzus persicae (Green Peach Aphid) Feeding/Contact Activity
Sunflower leaf discs were placed on agar in a 24-well microtiter plate and sprayed with aqueous test solutions prepared from 10′000 ppm DMSO stock solutions. After drying, the leaf discs were infested with an aphid population of mixed ages. The samples were assessed for mortality 6 days after infestation.

In another data set the test system is Spodoptera littoralis. Nature of the data set: Activity against Spodoptera littoralis (Egyptian cotton leaf worm), cotton leaf discs. The conditions noted are these: foliar, 72 h, application rate 200 ppm, L1 larvae, 3 days after infestation, read-out: control (mortality, anti-feeding effect or growth inhibition). The protocol: Example B1: Activity Against Spodoptera littoralis (Egyptian Cotton Leaf Worm)
Cotton leaf discs were placed onto agar in 24-well microtiter plates and sprayed with aqueous test solutions prepared from 10′000 ppm DMSO stock solutions. After drying the leaf discs were infested with five L1 larvae. The samples were assessed for mortality, anti-feeding effect, and growth inhibition in comparison to untreated samples 3 days after infestation. Control of Spodoptera littoralis by a test sample is given when at least one of the categories mortality, anti-feedant effect, and growth inhibition is higher than the untreated sample.

[3] abbreviates: 144 h, test rate 24 ppm, systemic, 6 days after placing seedlings in test solutions.
[4] abbreviates: Myzus persicae (systemic), concentration 24 ppm.
The mark [5] stands for this setting: Myzus persicae, foliar, Myzus persicae (feeding/contact), concentration 3.125 ppm.

For `CCS(=N)(=O)c1cc(OC(C)(C)C#N)c(C)nc1-c1nc2cc(C(F)(F)F)cnc2n1C` (single isomer, unassigned) [Compound P5-A, 2-[[5-(ethylsulfonimidoyl)-2-methyl-6-[3-methyl-6-(trifluoromethyl)imidazo[4,5-b]pyridin-2-yl]-3-pyridyl]oxy]-2-methyl-propanenitrile], the mortality (as a rule, the share of the test organisms that died) at 200 ppm is at least 80% in the data set on Bemisia tabaci and at least 80% in the data set on Myzus persicae [2] (Myzus persicae, foliar). For the same compound, the mortality at 24 ppm in the data set on Myzus persicae [1] (setting [3]) was at least 80%; in the data set with Myzus persicae [1] (setting [4]), 100%. Further, in the data set with Diabrotica balteata, the percent effect (mortality or growth inhibition) at 200 ppm was at least 80%. In the data set on Diabrotica balteata, this compound showed a mortality at 3.125 ppm of 80%. The percent control (mortality, anti-feedant effect or growth inhibition) at 200 ppm in the data set with Spodoptera littoralis was at least 80%.
Compound `CCS(=N)(=O)c1cc(OC(C)(C)C#N)cnc1-c1cn2cnc(SC(F)(F)F)cc2n1` (racemic) [Described in WO20/084075 as compound P11, reference compound] displayed a mortality at 50 ppm in the data set on Bemisia tabaci (concentration 50 ppm) of 50%.
As for `CCS(=N)(=O)c1cc(C(C)(C)C#N)cnc1-c1nc2cc(C(F)(F)F)ncc2n1C` (single isomer, unassigned) [Compound P4-A, 2-[5-(ethylsulfonimidoyl)-6-[3-methyl-6-(trifluoromethyl)imidazo[4,5-c]pyridin-2-yl]-3-pyridyl]-2-methyl-propanenitrile], the mortality at 200 ppm with Bemisia tabaci is at least 80%; in the data set on Myzus persicae [2] (Myzus persicae, foliar), at least 80%. In the data set with Myzus persicae [1] (setting [3]), this compound had a mortality at 24 ppm of at least 80%.
In the case of `CCS(=N)(=O)c1cc(C2(C#N)CC2)cnc1-c1nc2cc(C(F)(F)F)ncc2n1C` (racemic) [reference compound], the mortality at 12.5 ppm with Bemisia tabaci came to 50%.
On to `CCS(=O)(=O)c1cc(OC(C)(C)C#N)c(C)nc1-c1nc2cc(C(F)(F)F)cnc2n1C` (racemic) [Described in WO20/084075 as compound P4, reference compound], for which the mortality at 3.125 ppm in the data set on Diabrotica balteata came out at 0%.
Regarding `CCS(=O)(=O)c1cc(C2(C#N)CC2)cnc1-c1nc2cc(C(F)(F)F)nnc2n1C` [Described in WO18/108726 as compound H-1, reference compound], the mortality at 3.125 ppm in the data set on Myzus persicae [2] (setting [5]) came to 80%.
`CCS(=O)(=O)c1cc(OC(C)(C)C#N)c(C)nc1-c1nc2cc(C(F)(F)F)cnc2n1C` [Described in WO21/219810 as compound P4, reference compound] displayed a mortality at 24 ppm with Myzus persicae [1] (setting [4]) of 0%.
`CCS(=N)(=O)c1cc(OC(C)(C)C#N)cnc1-c1nc2cc(C(F)(F)F)cnc2n1C` (racemic) [Described in WO20/084075 as compound P3, reference compound]: in the data set on Diabrotica balteata, the mortality at 50 ppm was 80%.
Turning to `CCS(=N)(=O)c1cc(OC(C)(C)C#N)cnc1-c1nc2cc(C(F)(F)F)ncc2n1C` (racemic) [Described in WO20/084075 as compound P1, reference compound], the mortality at 50 ppm with Diabrotica balteata is 0%.
`CCS(=N)(=O)c1cc(OC(C)(C)C#N)cnc1-c1nc2cc(C(F)(F)F)nnc2n1C` (racemic) [Described in WO20/084075 as compound P2, reference compound] showed a mortality at 12.5 ppm with Diabrotica balteata (concentration 12.5 ppm) of 0%.
On to `CCS(=N)(=O)c1cc(C2(C#N)CC2)cnc1-c1nc2cc(C(F)(F)F)nnc2n1C` (single isomer, unassigned) [Compound P2-B, 1-[5-(ethylsulfonimidoyl)-6-[7-methyl-3-(trifluoromethyl)imidazo[4,5-c]pyridazin-6-yl]-3-pyridyl]cyclopropanecarbonitrile], for which the “Mortality (%)” value in the data set on Myzus persicae [2] (Myzus persicae (feeding/contact), concentration 3.125 ppm) was determined as 50%.
The compound `CCS(=O)(=O)c1cc(C2(C#N)CC2)cnc1-c1nc2cc(C(F)(F)F)cnc2n1C` [reference compound] gave a mortality at 3.125 ppm with Myzus persicae [2] (setting [5]) of 80%.
Take `CCn1c(C(F)(F)F)cc2nc(-c3ncc(C4(C#N)CC4)cc3S(=N)(=O)CC)n(C)c2c1=O` (racemic) [Described in WO19/234158 as compound P14, reference compound]: in the data set with Diabrotica balteata, the mortality at 50 ppm is 0%.
Compound `CCS(=N)(=O)c1cc(C2(C#N)CC2)cnc1-c1nc2cc(C(F)(F)F)cnc2n1C` (racemic) [Described in WO19/234158 as compound P6, reference compound] came in with a mortality at 12.5 ppm with Bemisia tabaci of 50%.
Consider `CCS(=N)(=O)c1cc(C(C)(C)C#N)cnc1-c1nc2cc(C(F)(F)F)ncc2n1C` (racemic) [Compound P4, 2-[5-(ethylsulfonimidoyl)-6-[3-methyl-6-(trifluoromethyl)imidazo[4,5-c]pyridin-2-yl]-3-pyridyl]-2-methyl-propanenitrile], for which the mortality at 200 ppm is at least 80% with Bemisia tabaci and at least 80% in the data set on Myzus persicae [2] (Myzus persicae, foliar). The same compound showed a mortality at 24 ppm in the data set on Myzus persicae [1] (setting [3]) of at least 80%.
For `CCS(=O)(=O)c1cc(OC(C)(C)C#N)cnc1-c1nc2cc(C(F)(F)F)cnc2n1C` [Described in WO21/219810 as compound P3, reference compound], the mortality at 24 ppm in the data set with Myzus persicae [1] (setting [4]) came to 50%.
On to `CCS(=N)(=O)c1cc(OC(C)(C)C#N)cnc1-c1cn2ccc(C(F)(F)F)cc2n1` (single isomer, unassigned) [Compound P3-A, 2-[[5-(ethylsulfonimidoyl)-6-[7-(trifluoromethyl)imidazo[1,2-a]pyridin-2-yl]-3-pyridyl]oxy]-2-methyl-propanenitrile], for which the percent effect (mortality or growth inhibition) at 200 ppm in the data set on Diabrotica balteata was at least 80%. Also, the mortality at 200 ppm in the data set on Myzus persicae [2] (Myzus persicae, foliar) was at least 80%. In the data set on Spodoptera littoralis, the percent control (mortality, anti-feedant effect or growth inhibition) at 200 ppm is at least 80%.
Compound `CCS(=O)(=O)c1cc(OC(C)(C)C#N)cnc1-c1cn2cnc(C(F)(F)F)cc2n1` [Described in WO18/206348 as compound P13, reference compound] showed a mortality at 24 ppm in the data set with Myzus persicae [1] (setting [4]) of 0%.
As for `CCS(=O)(=O)c1cc(C2(C#N)CC2)ccc1-c1nc2cc(C(F)(F)F)cnc2n1C` [reference compound], the mortality at 6 ppm with Myzus persicae [1] (Myzus persicae (systemic), concentration 6 ppm) worked out at 0%.
For the compound `CCS(=O)(=O)c1cc(OC(C)(C)C#N)cnc1-c1nc2cc(C(F)(F)F)n(C3CC3)c(=O)c2n1C` [Described in WO21/219810 as compound P7, reference compound], in the data set on Myzus persicae [2] (Myzus persicae, foliar, Myzus persicae (contact), concentration 50 ppm), the mortality at 50 ppm amounted to 0%.
In the data set with Diabrotica balteata, `CCS(=N)(=O)c1cc(C2(C#N)CC2)ccc1-c1nc2cc(C(F)(F)F)cnc2n1C` (racemic) [Described in WO19/234158 as compound P15, reference compound] had a mortality at 50 ppm of 0%.
In the case of `CCS(=O)(=O)c1cc(C2(C#N)CC2)cnc1-c1nc2cc(C(F)(F)F)ncc2n1C` [reference compound], the mortality at 0.781 ppm in the data set on Myzus persicae [2] (Myzus persicae, foliar, Myzus persicae (feeding/contact), concentration 0.781 ppm) is 0%.
As to `CCS(=O)(=O)c1cc(OC(C)(C)C#N)cnc1-c1nc2cc(C(F)(F)F)ncc2n1C` [Described in WO18/197315 as compound P18, reference compound], in the data set with Myzus persicae [2] (Myzus persicae, foliar, Myzus persicae (feeding/contact), concentration 12.5 ppm), the mortality at 12.5 ppm was found to be 65%.
Regarding `CCS(=N)(=O)c1cc(OC(C)(C)C#N)cnc1-c1cn2cnc(C(F)(F)F)cc2n1` (single isomer, unassigned) [Compound P11-B, 2-[[5-(ethylsulfonimidoyl)-6-[7-(trifluoromethyl)imidazo[1,2-c]pyrimidin-2-yl]-3-pyridyl]oxy]-2-methyl-propanenitrile], the mortality at 200 ppm in the data set on Bemisia tabaci is at least 80%.
In the data set with Bemisia tabaci, `CCS(=N)(=O)c1cc(C2(C#N)CC2)ccc1-c1nc2cc(C(F)(F)F)ncc2n1C` (racemic) [Described in WO19/234158 as compound P13, reference compound] had a mortality at 12.5 ppm of 0%. The mortality at 50 ppm with Diabrotica balteata is 0%.
`CCS(=N)(=O)c1cc(OC(C)(C)C#N)cnc1-c1nc2cc(C(F)(F)F)nnc2n1C` (single isomer, unassigned) [Compound P15-B, 2-[[5-(ethylsulfonimidoyl)-6-[7-methyl-3-(trifluoromethyl)imidazo[4,5-c]pyridazin-6-yl]-3-pyridyl]oxy]-2-methyl-propanenitrile]: the “Mortality (%)” value in the data set with Diabrotica balteata (concentration 12.5 ppm) stood at 100%.
